From patent publication US10294272B2, “Peptides with antagonistic activities against natural CXCR4” (Pharis Biotec GmbH, priority 2013, dated 2019) come the findings set out here.

The test system of one assay is CD34+ human stem cells. The experiment in a line: CXCL12-induced migration of CD34+ human stem cells. Format: cell-based. On the procedure: Peripheral hematopoietic stem (PHS) cells isolated by apheresis of Granulo-cyte colony-stimulating factor (G-CSF) treated individuals were obtained from the Institute of Transfusion Medicine, University Hospital Ulm). Frozen cells were carefully thawed in 1/10 diluted 10% ACD-A buffer (provided by the Institute of Transfusion Medicine) in PBS. 1×10^5/200 μl PHS cells were placed into the upper chamber of transwell plates. Then, 10 nM CXCL12 and/or various concentrations of the peptide of SEQ ID NO 16 or its derivatives in 600 μl culture medium were placed to each well. After 3 h, the chemotaxis was measured using the CellTiter-Glo Luminescent Cell Viability Assay as described above. All values represent mean numbers of migrated cells relative to CXCL12 only treated cells from a triplicate experiment±SD.

Another assay deals with DU145 cells. The experiment in a line: Cancer cell invasion assay. It is filed as cell-based. Here is the method:
Cell invasion of cancer cells was assayed using a Biocoat Matrigel invasion chamber (BD BioCoat™ Matrigel™ Invasion Chamber) as recommended by the manufacturer. 5×10^4 DU145 cells (ATCC) were suspended in 300 μl serum-free RPMI (Gibco) containing 0.1% BSA (KPL) and then added to the upper chamber. 700 μl serum-free medium with or without 100 nM CXCL12 and various concentrations of the peptide of SEQ ID NO 16 were added to each lower chamber. The chambers were incubated for 24 h at 37° C. in a humid atmosphere of 5% CO2/95% air. The non-invading cells were removed from the upper surface of the membrane by scrubbing. Invaded cells toward the bottom of membrane were quantified using the CellTiter-Glo® Luminescent Cell Viability Assay kit as described above.

The next assay concerns Candida albicans. Kind of assay: Antifungal activity against Candida. It is filed as cell-based.
Assay [1] concerns the target T1, CXCR4 (Mus musculus, UniProt P70658).
T1 construct: from tissue; host or cells: live mice (C57Bl/6J for mobilization)
The experiment in a line: Asthma mouse model (OVA challenge). The following applies: mice, i.p., allergen challenge with OVA. It is filed as in vivo. On the procedure: Mice were sensitized by intraperitoneal (i.p.) injection on days 0, 1 and 2 of 50 μg ovalbumin (OVA, Sigma-Aldrich, A5503) adsorbed on 2 mg aluminium hydroxide (Sigma-Aldrich, 23918-6) in saline. Mice were challenged by intranasal (i.n.) instillation of 10 μg OVA in 25 μl saline (12.5 μl/nostril) or saline alone for control mice on days 5, 6 and 7 under anesthesia (50 mg/kg ketamine and 3.3 mg/kg xylazine, i.p.). the peptide of SEQ ID NO 16 or ALB409-423 in saline were administered i.p. (16 μmol/kg) two hours before each OVA challenge. Bronchoalveolar lavage (BAL) and differential cell counts were performed 24 h after the last OVA challenge as previously reported in (Rebber et al., 2012).

Assay [2] concerns the target T2, CXCR4 (Homo sapiens, UniProt P61073).
T2 construct: expressed in transfected cells
Kind of assay: Competition with CXCL12 binding to CXCR4 (real-time fluorescence, eGFP-CXCR4 cells). The following applies: read-out: dissociation constant (DC50), competition with CXCL12 binding to CXCR4. On the procedure: Anti-human CXCR4 (clone 12G5, IgG2a) or anti-human CXCR7 (clone 9C4) monoclonal antibodies (mAbs) were purchased from R&D Systems (Minneapolis, Minn.). […] The human chemokines CXCL12 and CXCL12-TexasRed were synthesized as described (Valenzuela-Fernandez, et al. 2001). The human chemokine CXCL11 was purchased from Clinisciences SAS (France).
Experiments were performed using cells stably expressing eGFP-CXCR4, suspended in HEPES-bovine serum albumin buffer (10 mM HEPES, 137.5 mM NaCl, 1.25 mM MgCl2, 1.25 mM CaCl2, 6 mM KCl, 10 mM glucose, 0.4 mM NaH2PO4, 0.1% bovine serum albumin (w/v), pH 7.4) (typically at 10^6 cells/mL). Time-based recordings of the fluorescence emitted at 510 nm (excitation at 470 nm) were performed at 21° C. using a spectrofluorimeter and sampled every 0.3 s. Fluorescence binding measurements were initiated by adding at 30 s 100 nM of CXCL12-TR to the 1 mL cell suspension. For competition experiments, EGFP-CXCR4 expressing cells were preincubated for 10 min in the absence or presence of various concentrations of unlabelled drugs. Then, CXCL12-TR (100 nM) was added and fluorescence was recorded until equilibrium was reached (300 s). Data were analyzed using Kaleidagraph 3.08 software (Synergy Software, Reading, Pa., USA).

No end group written: not given here.

T1 sequence (P70658 whole entry): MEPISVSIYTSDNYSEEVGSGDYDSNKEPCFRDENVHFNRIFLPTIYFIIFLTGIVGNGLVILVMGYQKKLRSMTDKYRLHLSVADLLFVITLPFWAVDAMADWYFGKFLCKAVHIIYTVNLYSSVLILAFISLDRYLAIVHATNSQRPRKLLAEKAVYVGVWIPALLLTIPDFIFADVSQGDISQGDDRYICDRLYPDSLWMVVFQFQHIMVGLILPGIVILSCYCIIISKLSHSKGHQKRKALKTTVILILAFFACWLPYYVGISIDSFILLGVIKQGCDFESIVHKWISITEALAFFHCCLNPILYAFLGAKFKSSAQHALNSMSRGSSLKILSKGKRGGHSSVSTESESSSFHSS
T2 sequence (P61073 whole entry): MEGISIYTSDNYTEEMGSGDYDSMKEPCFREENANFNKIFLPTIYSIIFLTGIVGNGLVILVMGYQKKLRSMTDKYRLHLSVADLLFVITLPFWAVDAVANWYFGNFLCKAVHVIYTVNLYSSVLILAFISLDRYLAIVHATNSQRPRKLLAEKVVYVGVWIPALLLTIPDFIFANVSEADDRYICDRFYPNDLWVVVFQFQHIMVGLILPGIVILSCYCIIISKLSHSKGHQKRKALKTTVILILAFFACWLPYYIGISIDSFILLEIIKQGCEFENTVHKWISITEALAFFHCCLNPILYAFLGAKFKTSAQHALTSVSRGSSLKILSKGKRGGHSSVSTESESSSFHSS

Regarding “LVRYTKKVPQVSTPTL [Derivative 408-423, LVRYTKKVPQVSTPTL]”, in the assay on CD34+ human stem cells, the “CXCL12-induced migration of CD34+ human stem cells” value is “suppressed”. The “tumor cell invasion in vitro” value with DU145 cells was “prevented”. For the same sequence, the “effects against Candida albicans” value with Candida albicans is on record as “only modest effects”. Besides, at CXCR4 [1], the “CXCR4-dependent infiltration of neutrophils, lymphocytes and eosinophils into the airways” value is on record as “significantly reduced”; the infiltration of macrophages entry is “markedly reduced”. In addition, the DC50 on CXCR4 [2] turned out to be 8 ± 3 µM.
